Results as given in US20240209028A1, “CNP COMPOUNDS” (priority 2022, published 2024).
Starred links: 1 amine or outer side, 2 acyl side, 3 side chain; linkers in the order of their positions; H or OH if unused. Positions of bridges follow the written chain, without caps; N, C: chain ends. Residues, ends and D or L forms follow the SMILES beside them. *: point of attachment. C18 diacid = O=C(O)CCCCCCCCCCCCCCCCC(=O)*; γGlu = O=C(O)[C@H](CCC(=O)[*:2])N[*:1]; AEEA = NCCOCCOCC(=O)O

target: T1, human natriuretic peptide receptor 2 (hNPR2) (Homo sapiens, UniProt P20594); experiment: In vitro hNPR2 activity assay (cGMP GloSensor reporter, HEK293); type: cell-based; settings: potency relative to CNP22 (0065)
T1 construct: expressed in transfected cells; host or cells: HEK293 (ATCC CRL-1573), clone 35, co-transfected with pGloSensor-42F
T1 sequence (P20594 23-1047): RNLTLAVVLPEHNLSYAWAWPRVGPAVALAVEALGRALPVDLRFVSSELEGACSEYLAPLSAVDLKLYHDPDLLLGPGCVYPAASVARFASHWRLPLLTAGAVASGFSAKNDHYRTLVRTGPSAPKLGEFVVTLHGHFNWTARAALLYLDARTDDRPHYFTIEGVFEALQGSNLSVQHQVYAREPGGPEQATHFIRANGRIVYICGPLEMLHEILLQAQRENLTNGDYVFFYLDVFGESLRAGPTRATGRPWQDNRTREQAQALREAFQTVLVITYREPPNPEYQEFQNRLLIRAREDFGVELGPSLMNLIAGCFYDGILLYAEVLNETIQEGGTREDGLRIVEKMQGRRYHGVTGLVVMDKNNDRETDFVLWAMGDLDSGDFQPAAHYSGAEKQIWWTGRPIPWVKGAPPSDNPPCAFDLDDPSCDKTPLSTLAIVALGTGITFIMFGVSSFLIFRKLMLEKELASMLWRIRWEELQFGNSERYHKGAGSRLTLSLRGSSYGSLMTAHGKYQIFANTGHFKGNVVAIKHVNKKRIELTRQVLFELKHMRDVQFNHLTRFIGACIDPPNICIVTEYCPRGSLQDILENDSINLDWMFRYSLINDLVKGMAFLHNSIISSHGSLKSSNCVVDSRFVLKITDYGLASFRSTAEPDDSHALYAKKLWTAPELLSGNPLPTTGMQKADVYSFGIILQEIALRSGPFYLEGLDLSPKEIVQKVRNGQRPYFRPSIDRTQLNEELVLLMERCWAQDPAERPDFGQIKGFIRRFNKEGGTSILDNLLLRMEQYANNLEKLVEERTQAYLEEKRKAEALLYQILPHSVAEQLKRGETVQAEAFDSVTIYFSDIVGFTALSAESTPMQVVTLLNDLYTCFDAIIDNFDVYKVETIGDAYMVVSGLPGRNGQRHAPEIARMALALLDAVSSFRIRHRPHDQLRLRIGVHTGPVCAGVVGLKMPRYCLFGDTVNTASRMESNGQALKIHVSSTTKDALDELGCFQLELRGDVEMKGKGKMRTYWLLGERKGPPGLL
In short: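 Potency is the EC50 from a four-parameter logistic fit, also expressed relative to the in-plate CNP22 control (×100), with at least two replicates. Compounds (ten concentrations, […], HSA-free diluent with 1% OVA, 0.01% Tween20) were incubated 30 min at 37 °C on HEK293 cells co-expressing hNPR2 and a GloSensor cGMP luciferase. Luminescence detected with Bright-Glo.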

Compared with `CC[C@H](C)[C@@H]1NC(=O)[C@H](CCCNC(=N)N)NC(=O)[C@H](CC(=O)O)NC(=O)[C@H](CC(C)C)NC(=O)[C@@H]2CCCN2C(=O)[C@H](CC(C)C)NC(=O)CNC(=O)[C@H](Cc2ccccc2)NC(=O)[C@@H](NC(=O)CNC(=O)[C@H](CO)NC(=O)[C@H](CO)NC(=O)[C@H](CC(C)C)NC(=O)CNC(=O)[C@H](CCCCN)NC(=O)[C@H](CCCCN)NC(=O)[C@H](CCC(N)=O)NC(=O)[C@H](C)NC(=O)CNC(=O)[C@H](CCC(=O)O)NC(=O)[C@H](Cc2ccc(O)cc2)NC(=O)CNC(=O)CNC(=O)CNC(=O)COCCOCCNC(=O)COCCOCCNC(=O)CC[C@H](NC(=O)CCCCCCCCCCCCCCCCC(=O)O)C(=O)O)CSSC[C@@H](C(=O)O)NC(=O)CNC(=O)[C@H](CC(C)C)NC(=O)CNC(=O)[C@H](CO)NC(=O)[C@H](CC(C)C)NC(=O)[C@H](CO)NC(=O)CNC1=O` [compound 1378] ({C18 diacid-γGlu-AEEA-AEEA}-GGGYEGAQKKGLSSGCFGLPLDRIGSLSGLGC-OH; disulfide 16-32), `CC[C@H](C)[C@@H]1NC(=O)[C@H](CCCNC(=N)N)NC(=O)[C@H](CC(=O)O)NC(=O)[C@H](CC(C)C)NC(=O)[C@@H]2CCCN2C(=O)[C@H](CC(C)C)NC(=O)CNC(=O)[C@H](Cc2ccccc2)NC(=O)[C@@H](NC(=O)CNC(=O)[C@H](CO)NC(=O)[C@H](CO)NC(=O)[C@H](CC(C)C)NC(=O)CNC(=O)[C@H](CCCCN)NC(=O)[C@H](CCCCN)NC(=O)[C@H](CCC(N)=O)NC(=O)[C@H](C)NC(=O)CNC(=O)[C@H](CCC(=O)O)NC(=O)[C@H](Cc2ccc(O)cc2)NC(=O)[C@H](CO)NC(=O)[C@H](CCCNC(=N)N)NC(=O)[C@H](C)NC(=O)[C@H](CCC(N)=O)NC(=O)[C@@H]2CCCN2C(=O)[C@H](Cc2c[nH]cn2)NC(=O)[C@H](CCC(=O)O)NC(=O)[C@H](CCC(N)=O)NC(=O)COCCOCCNC(=O)COCCOCCNC(=O)CC[C@H](NC(=O)CCCCCCCCCCCCCCCCC(=O)O)C(=O)O)CSSC[C@@H](C(=O)O)NC(=O)CNC(=O)[C@H](CC(C)C)NC(=O)CNC(=O)[C@H](CO)NC(=O)[C@H](CC(C)C)NC(=O)[C@H](CO)NC(=O)CNC1=O` [compound 1379] ({C18 diacid-γGlu-AEEA-AEEA}-QEHPQARSYEGAQKKGLSSGCFGLPLDRIGSLSGLGC-OH; disulfide 21-37; C-terminus assumed) is higher in “hNPR2 0% HSA. [EC50% rel CNP]” value: 28.6% for the first, 33.5% for the second.

With `CC[C@H](C)[C@@H]1NC(=O)[C@H](CCCNC(=N)N)NC(=O)[C@H](CC(=O)O)NC(=O)[C@H](CC(C)C)NC(=O)[C@@H]2CCCN2C(=O)[C@H](CC(C)C)NC(=O)CNC(=O)[C@H](Cc2ccccc2)NC(=O)[C@@H](NC(=O)CNC(=O)[C@H](CCC(N)=O)NC(=O)[C@H](CO)NC(=O)[C@H](CO)NC(=O)CNC(=O)[C@H](Cc2c[nH]cn2)NC(=O)[C@H](Cc2c[nH]cn2)NC(=O)[C@H](CCC(N)=O)NC(=O)[C@H](C)NC(=O)CNC(=O)[C@H](Cc2c[nH]cn2)NC(=O)[C@H](Cc2ccc(O)cc2)NC(=O)[C@H](CCCCN)NC(=O)[C@H](Cc2c[nH]cn2)NC(=O)[C@H](C)NC(=O)[C@H](CCC(N)=O)NC(=O)[C@@H]2CCCN2C(=O)[C@H](Cc2c[nH]cn2)NC(=O)[C@H](CCC(=O)O)NC(=O)[C@H](CCC(N)=O)NC(=O)COCCOCCNC(=O)COCCOCCNC(=O)CC[C@H](NC(=O)CCCCCCCCCCCCCCCCC(=O)O)C(=O)O)CSSC[C@@H](C(=O)O)NC(=O)CNC(=O)[C@H](CC(C)C)NC(=O)CNC(=O)[C@H](CO)NC(=O)[C@H](CC(C)C)NC(=O)[C@H](CO)NC(=O)CNC1=O` [compound 1381] ({C18 diacid-γGlu-AEEA-AEEA}-QEHPQAHKYHGAQHHGSSQGCFGLPLDRIGSLSGLGC-OH; disulfide 21-37) the “hNPR2 0% HSA. [EC50% rel CNP]” value was 38.7%.
